{"source": "patent US11578083B2", "about": "“Pyrimidinium compounds and their mixtures for combating animal pests” (BASF SE, priority 2017, dated 2023)", "assay_type_in_all_cases": "in vivo", "key": {"[1]": {"tested_on": "green peach aphid (Myzus persicae)", "test": "Test 2 green peach aphid, artificial diet (mixtures)", "from_the_text": "(§1) For evaluating control of green peach aphid (Myzus persicae) through systemic means the test unit consisted of 96-well-microtiter plates containing liquid artificial diet under an artificial membrane.\n(§2) The compounds or mixtures were formulated using a solution containing 75% water and 25% DMSO. Concentrations of formulated compounds or mixtures were pipetted into the aphid diet, using a custom built pipetter, at two replications.\n(§3) For experimental mixtures in these tests identical volumes of both mixing partners at the desired concentrations respectively, were mixed together.\n(§4) After application, 5-8 adult aphids were placed on the artificial membrane inside the microtiter plate wells. The aphids were then allowed to suck on the treated aphid diet and incubated at 23±1° C., 50±5% RH for 3 days. Aphid mortality and fecundity was then visually assessed."}, "[2]": {"tested_on": "Greenhouse Whitefly (Trialeurodes vaporariorum)", "test": "Test 11 Greenhouse Whitefly, egg plant leaf disk (mixtures)", "details": "use rate 2500 ppm", "procedure": "For evaluating control of Greenhouse Whitefly (Trialeurodes vaporariorum) the test unit consisted of 96-well-microtiter plates containing a leaf disk of egg plant leaf disk with white fly eggs.\nThe compounds or mixtures were formulated using a solution containing 75% water and 25% DMSO. Different concentrations of formulated compounds or mixtures were sprayed onto the insect diet at 2.5 μl, using a custom built micro atomizer, at two replications.\nas §3\nAfter application, microtiter plates were incubated at 23±1° C., 65±5% RH for 6 days. Mortality of hatched crawlers was then visually assessed."}, "[3]": {"tested_on": "tobacco budworm (Heliothis virescens)", "test": "Test 4 tobacco budworm, insect diet with eggs (mixtures)", "procedure": "(§5) For evaluating control of tobacco budworm (Heliothis virescens) the test unit consisted of 96-well-microtiter plates containing an insect diet and 15-25 H. virescens eggs.\nThe compounds or mixtures were formulated using a solution containing 75% water and 25% DMSO. Concentrations of formulated compounds or mixtures were sprayed onto the insect diet at 10 μl, using a custom built micro atomizer, at two replications.\nas §3\n(§6) After application, microtiter plates were incubated at 28±1° C., 80±5% RH for 5 days. Egg and larval mortality was then visually assessed."}, "[4]": {"tested_on": "boll weevil (Anthonomus grandis)", "test": "Test 3 boll weevil, insect diet with eggs (mixtures)", "procedure": "(§7) For evaluating control of boll weevil (Anthonomus grandis) the test unit consisted of 24-well-microtiter plates containing an insect diet and 20-30 A. grandis eggs.\n(§8) The compounds or mixtures were formulated using a solution containing 75% water and 25% DMSO. Concentrations of formulated compounds or mixtures were sprayed onto the insect diet at 20 μl, using a custom built micro atomizer, at two replications.\nas §3\n(§9) After application, microtiter plates were incubated at 23±1° C., 50±5% RH for 5 days. Egg and larval mortality was then visually assessed."}, "[5]": {"tested_on": "tobacco budworm (Heliothis virescens)", "test": "Test 10 tobacco budworm, insect diet with eggs (mixtures)", "details": "use rate 2500 ppm", "procedure": "as §5\nThe compounds or mixtures were formulated using a solution containing 75% water and 25% DMSO. Different concentrations of formulated compounds or mixtures were sprayed onto the insect diet at 10 μl, using a custom built micro atomizer, at two replications.\nas §3, §6"}, "[6]": {"tested_on": "green peach aphid (Myzus persicae)", "test": "Test 8 green peach aphid, artificial diet (mixtures)", "from_the_text": "as §1, §2, §3, §4"}, "[7]": {"tested_on": "vetch aphid (Megoura viciae)", "test": "Test 7 vetch aphid, leaf disks (mixtures)", "details": "use rate 2500 ppm", "procedure": "For evaluating control of vetch aphid (Megoura viciae) through contact or systemic means the test unit consisted of 24-well-microtiter plates containing broad bean leaf disks.\nThe compounds or mixtures were formulated using a solution containing 75% water and 25% DMSO. Concentrations of formulated compounds or mixtures were sprayed onto the leaf disks at 2.5 μl, using a custom built micro atomizer, at two replications.\nas §3\nAfter application, the leaf disks were air-dried and 5-8 adult aphids placed on the leaf disks inside the microtiter plate wells. The aphids were then allowed to suck on the treated leaf disks and incubated at 23±1° C., 50±5% RH for 5 days. Aphid mortality and fecundity was then visually assessed."}, "[8]": {"tested_on": "Rice green leafhopper (Nephotettix virescens)", "test": "B.1 Rice green leafhopper, sprayed rice seedlings", "details": "Rice green leafhopper, Dose 1 ppm, after 72 hours, read-out: Mortality %", "procedure": "B.1 Rice Green Leafhopper (Nephotettix virescens):\n(§10) Rice seedlings are cleaned and washed 24 hours before spraying. The active compounds are formulated in 50:50 acetone:water (vol:vol), and 0.1% vol/vol surfactant (EL 620) is added. Potted rice seedlings are sprayed with 5 ml test solution, air dried, placed in cages and inoculated with 10 adults. Treated rice plants are kept at about 28-29° C. and relative humidity of about 50-60%. Percent mortality is recorded after 72 hours."}, "[9]": {"tested_on": "Cowpea aphid (Aphis craccivora)", "test": "B.3 Cowpea aphid leaf disk test", "details": "foliar, 120 h, Cowpea aphid, Dose 1 ppm, 5 days, read-out: Mortality %", "procedure": "If not otherwise specified, the test solutions are prepared as follows:\nThe active compound is dissolved at the desired concentration in a mixture of 1:1 (vol:vol) distilled water: acetone. The test solution is prepared at the day of use.\nB.3 Cowpea aphid (Aphis craccivora):\nFor evaluating control of Cowpea aphid through contact or systemic means the test unit consists of 24-well-microtiter plates containing broad bean leaf disks.\nThe compounds are formulated using a solution containing 75% v/v water and 25% v/v DMSO. Different concentrations of formulated compounds are sprayed onto the leaf disks at 2.5 μl, using a custom built micro atomizer, at two replications.\nAfter application, the leaf disks are air-dried and 5-8 adult aphids placed on the leaf disks inside the microtiter plate wells. The aphids are then allowed to suck on the treated leaf disks and incubated at about 23±1° C. and about 50±5% relative humidity for 5 days. Aphid mortality and fecundity is then visually assessed."}, "[10]": {"tested_on": "Thrips (Dichromothrips corbetti)", "test": "B.4 Thrips floral-immersion test", "details": "Dose 10 ppm, 72 hours after treatment, read-out: Mortality %", "procedure": "B.4 Thrips (Dichromothrips Corbetti):\nDichromothrips corbetti adults used for bioassay are obtained from a colony maintained continuously under laboratory conditions. For testing purposes, the test compound is diluted in a 1:1 mixture of acetone:water (vol:vol), plus 0.01% vol/vol Alkamuls® EL 620 surfactant.\nThrips potency of each compound is evaluated by using a floral-immersion technique. Plastic petri dishes are used as test arenas. All petals of individual, intact orchid flowers are dipped into treatment solution and allowed to dry. Treated flowers are placed into individual petri dishes along with about 20 adult thrips. The petri dishes v then covered with lids. All test arenas are held under continuous light and a temperature of about 28° C. for duration of the assay. After 3 days, the numbers of live thrips are counted on each flower, and along inner walls of each petri dish. The percent mortality is recorded 72 hours after treatment."}, "[11]": {"tested_on": "Rice brown plant hopper (Nilaparvata lugens)", "test": "B.2 Rice brown plant hopper, sprayed rice seedlings", "details": "Rice brown plant hopper, Dose 1 ppm, after 72 hours, read-out: Mortality %", "procedure": "B.2 Rice Brown Plant Hopper (Nilaparvata lugens):\nas §10, with “(vol:vol)” for “(vol:vol),”"}, "[12]": {"tested_on": "boll weevil (Anthonomus grandis)", "test": "Test 9 boll weevil, insect diet with eggs (mixtures)", "procedure": "as §7, §8, §3, §9"}, "[13]": {"tested_on": "brown planthopper (Nilaparvata lugens)", "test": "Test 6 brown planthopper, foliar spray (mixtures)", "details": "Table 6.1, after 7 days, solo application Pymetrozine, use rate 300 ppm", "procedure": "For evaluating control of brown planthopper (Nilaparvata lugens) by foliar spray method. Clean potted rice seedlings with upper leaf portion cut are properly labeled. Placed three potted rice plants per treatment concentration/combination on top of the rotating disc (270 mm) and sprayed with the 12 mL spray solution. Treated plants are allowed to air-dry in the laboratory for about an hour. After air-drying, covered each treated rice plant. Each treated plant was infested with brown planthoppers using a suction vacuum. Plants are maintained at 27° C.±1° C., 50±5% RH and 24 hours light conditions in a holding room. Percent mortality is recorded 7 days after infestation by counting both the dead and alive brown planthoppers on the plants and on the water."}}}
{"compound": "spinosad [reference compound]", "values": [{"measurement": "Average control %", "setting": "[1]; Table 2.1, solo application Spinosad, use rate 4 ppm", "value": 0, "unit": "%"}]}
{"compound": "N#CCNC(=O)c1cnccc1C(F)(F)F", "note": "[Flonicamid, flonicamid, reference compound]", "values": [{"measurement": "Average control %", "setting": "[1]; Table 2.5, solo application Flonicamid, use rate 2 ppm", "value": 0, "unit": "%"}]}
{"compound": "CC(C)N1C(=O)N(c2ccccc2)CS/C1=N\\C(C)(C)C", "note": "[Buprofezin, buprofezin, reference compound]", "values": [{"measurement": "Average control %", "setting": "[2]; Table 11.2, solo application Buprofezin", "value": 50, "unit": "%"}]}
{"compound": "CC1(C)C(C=C(Cl)Cl)C1C(=O)OC(C#N)c1cccc(Oc2ccccc2)c1", "note": "(stereo not drawn) [Alpha-Cypermethrin, alpha-cypermethrin, reference compound]", "values": [{"measurement": "Average control %", "setting": "[3]; Table 4.2, solo application Alpha-Cypermethrin, use rate 2 ppm", "value": 50, "unit": "%"}, {"measurement": "Average control %", "setting": "[1]; Table 2.6, solo application Alpha-Cypermethrin, use rate 10 ppm", "value": 0, "unit": "%"}]}
{"compound": "CON=CNC(=O)c1ccc(C2=NOC(c3cc(Cl)cc(Cl)c3)(C(F)(F)F)C2)cc1C", "note": "(stereo not shown) [Fluxametamide, fluxametamide, reference compound]", "values": [{"measurement": "Average control %", "setting": "[4]; Table 3.3, solo application Fluxametamide, use rate 0.4 ppm", "value": 25, "unit": "%"}]}
{"compound": "C=CCOC1=NS(=O)(=O)c2ccccc21", "note": "[Probenazole, probenazole, reference compound]", "values": [{"measurement": "Average control %", "setting": "[5]; Table 10.1, solo application Probenazole", "value": 0, "unit": "%"}, {"measurement": "Average control %", "setting": "[6]; Table 8.1, solo application Probenazole, use rate 500 ppm", "value": 0, "unit": "%"}]}
{"compound": "Cc1nn(C)c(Cl)c1C(=O)Nc1cccc2c1C(C)OC2(C)C", "note": "(stereo not shown) [Furametpyr, furametpyr, reference compound]", "values": [{"measurement": "Average control %", "setting": "[7]; Table 7.1, solo application Furametpyr", "value": 0, "unit": "%"}]}
{"compound": "C[n+]1c([O-])c(-c2ccccc2)c(=O)n2c1SC[C@H]2c1cnc(Cl)s1", "note": "[I-S-1, S-3-(2-chlorothiazol-5-yl)-8-methyl-7-oxo-6-phenyl-2,3-dihydrothiazolo[3,2-a] pyrimidin-8-ium-5-olate]", "values": [{"measurement": "mortality at 1 ppm", "setting": "[8]", "value": 0, "unit": "%"}, {"measurement": "mortality at 1 ppm", "setting": "[9]", "value": 0, "unit": "%"}, {"measurement": "mortality at 10 ppm", "setting": "[10]", "value": 0, "unit": "%"}, {"measurement": "mortality at 1 ppm", "setting": "[11]", "value": 0, "unit": "%"}]}
{"compound": "C[C@@H](NC(=O)C(C#N)C(C)(C)C)c1ccc(Cl)cc1Cl", "note": "(stereo partly shown) [Dicyclomet, dicyclomet, reference compound]", "values": [{"measurement": "Average control %", "setting": "[6]; Table 8.2, solo application Dicyclomet, use rate 2500 ppm", "value": 0, "unit": "%"}]}
{"compound": "O=C1CCc2cccc3c2N1CC3", "note": "[Pyroquilon, pyroquilon, reference compound]", "values": [{"measurement": "Average control %", "setting": "[5]; Table 10.2, solo application Pyroquilon", "value": 0, "unit": "%"}]}
{"compound": "O=C(NC(=O)c1c(F)cccc1F)Nc1ccc(Oc2ccc(C(F)(F)F)cc2Cl)cc1F", "note": "[Flufenoxuron, flufenoxuron, reference compound]", "values": [{"measurement": "Average control %", "setting": "[4]; Table 3.1, solo application Flufenoxuron, use rate 0.8 ppm", "value": 0, "unit": "%"}, {"measurement": "Average control %", "setting": "[1]; Table 2.2, solo application Flufenoxuron, use rate 0.8 ppm", "value": 0, "unit": "%"}]}
{"compound": "C[Si](C)(C)CC(O)(Cn1cncn1)c1ccc(F)cc1", "note": "(stereo not shown) [Simeconazol, simeconazole, reference compound]", "values": [{"measurement": "Average control %", "setting": "[2]; Table 11.1, solo application Simeconazol", "value": 0, "unit": "%"}]}
{"compound": "O=c1c(-c2cccc(C(F)(F)F)c2)c([O-])[n+](Cc2cncnc2)c2ccccn12", "note": "[Triflumezopyrim, triflumezopyrim, reference compound]", "values": [{"measurement": "Average control %", "setting": "[1]; Table 2.3, solo application Triflumezopyrim, use rate 0.4 ppm", "value": 0, "unit": "%"}]}
{"compound": "COCC(=O)N(c1c(C)cccc1C)C(C)C(=O)OC", "note": "(stereo not shown) [Metalaxyl, metalaxyl, reference compound]", "values": [{"measurement": "Average control %", "setting": "[7]; Table 7.2, solo application Metalaxyl", "value": 0, "unit": "%"}, {"measurement": "Average control %", "setting": "[12]; Table 9.2, solo application Metalaxyl, use rate 500 ppm", "value": 0, "unit": "%"}]}
{"compound": "Cc1nn(C)c(F)c1C(=O)Nc1ccccc1C(C)CC(C)C", "note": "(stereo not shown) [Penflufen, penflufen, reference compound]", "values": [{"measurement": "Average control %", "setting": "[12]; Table 9.1, solo application Penflufen, use rate 2500 ppm", "value": 0, "unit": "%"}]}
{"compound": "COC(=O)N(C(=O)N1CO[C@@]2(C(=O)OC)Cc3cc(Cl)ccc3C2=N1)c1ccc(OC(F)(F)F)cc1", "note": "[Indoxacarb, indoxacarb, reference compound]", "values": [{"measurement": "Average control %", "setting": "[1]; Table 2.4, solo application Indoxacarb, use rate 2 ppm", "value": 0, "unit": "%"}]}
{"compound": "CC1=NNC(=O)N(/N=C/c2cccnc2)C1", "note": "[Pymetrozine, pymetrozine, reference compound]", "values": [{"measurement": "Average control %", "setting": "[13]", "value": 26, "unit": "%"}, {"measurement": "Average control %", "setting": "[3]; Table 4.1, solo application Pymetrozine, use rate 10 ppm", "value": 0, "unit": "%"}]}
